Experimental data from the supplement of paper PMC10307832.

Each cell line was assayed with Cn1cnc2c(F)c(Nc3ccc(Br)cc3Cl)c(C(=O)NOCCO)cc21 [Selumetinib] + CC1(C)CCC(c2ccc(Cl)cc2)=C(CN2CCN(c3ccc(C(=O)NS(=O)(=O)c4ccc(N[C@H](CCN5CCOCC5)CSc5ccccc5)c(S(=O)(=O)C(F)(F)F)c4)cc3)CC2)C1 [Navitoclax] (partner 0.5 µM) (assay: relative viability (nuclei count vs DMSO), 5 days (fraction); higher = more cells survive). Conditions: first compound 0.6325 µM.
In short: (§1)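 Lung cancer cell lines in 1536-well plates got either a single drug or a fixed anchor-drug dose together with five library-drug doses (not always all listed) in √10 steps, by pin tool, on the day after seeding. Nuclei were counted after 5 days, and relative viability is the treated-to-vehicle ratio of nuclei counts. Values are medians of duplicate plates.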

Row | Cell Line | relative viability
1 | NCI-H1993 | 0.648
2 | HOP-62 | 0.517
3 | NCI-H1355 | 0.513
4 | NCI-H2405 | 0.37
5 | NCI-H1437 | 0.487
6 | CAL-12T | 0.921
7 | H3255 | 0.436
8 | NCI-H2347 | 0.228
9 | NCI-H1975 | 0.728
10 | NCI-H441 | 0.546
11 | NCI-H1650 | 1.01
12 | NCI-H1915 | 0.498
13 | NCI-H2087 | 0.431
14 | HCC-366 | 0.757
15 | NCI-H1793 | 0.281
16 | RERF-LC-KJ | 0.758
17 | EKVX | 0.487

Each cell line was assayed with Cn1cnc2c(F)c(Nc3ccc(Br)cc3Cl)c(C(=O)NOCCO)cc21 [Selumetinib] + COc1cc2c(Oc3ccc(NC(=O)C4(C(=O)Nc5ccc(F)cc5)CC4)cc3F)ccnc2cc1OCCCN1CCOCC1 [Foretinib] (partner 0.25 µM) in the same assay as above. Conditions: first compound 0.02 µM.
In short: as §1

Row | Cell Line | relative viability
18 | LC-2-ad | 0.828
19 | LXF-289 | 0.939
20 | ChaGo-K-1 | 0.833
21 | NCI-H2170 | 0.987
22 | NCI-H322M | 0.853
23 | HCC-78 | 0.516
24 | BEN | 0.692
25 | HCC-15 | 0.777
26 | HCC-827 | 0.942
27 | NCI-H460 | 0.949
28 | LU99A | 0.898
29 | NCI-H2085 | 0.728
30 | A-427 | 1.17
31 | NCI-H520 | 0.746
32 | NCI-H838 | 0.907
33 | NCI-H596 | 0.832
34 | NCI-H3122 | 0.866
35 | NCI-H1395 | 0.959

Row | Cell Line | relative viability
36 | 201T | 0.977
37 | NCI-H1993 | 0.663
38 | HOP-62 | 1.06
39 | NCI-H1355 | 0.954
40 | NCI-H2405 | 1.05
41 | NCI-H1437 | 1.33
42 | CAL-12T | 1.05
43 | H3255 | 0.867
44 | NCI-H2347 | 0.93
45 | NCI-H1975 | 0.992
46 | NCI-H441 | 0.964
47 | NCI-H1650 | 0.992
48 | NCI-H1915 | 1.16
49 | NCI-H2087 | 0.982
50 | HCC-366 | 0.866
51 | NCI-H1793 | 0.69
52 | RERF-LC-KJ | 0.87
53 | EKVX | 0.724

Same assay, conditions: first compound 0.06325 µM

Row | Cell Line | relative viability
54 | LC-2-ad | 0.722
55 | LXF-289 | 0.867
56 | ChaGo-K-1 | 0.924
57 | NCI-H2170 | 0.954
58 | NCI-H322M | 0.782
59 | HCC-78 | 0.435
60 | BEN | 0.714
61 | HCC-15 | 0.637
62 | HCC-827 | 0.983
63 | NCI-H460 | 0.899
64 | LU99A | 0.729
65 | NCI-H2085 | 0.829
66 | A-427 | 1.11
67 | NCI-H520 | 0.759
68 | NCI-H838 | 0.915
69 | NCI-H596 | 0.781
70 | NCI-H3122 | 0.774
71 | NCI-H1395 | 0.978

Row | Cell Line | relative viability
72 | 201T | 0.978
73 | NCI-H1993 | 0.744
74 | HOP-62 | 1.02
75 | NCI-H1355 | 0.847
76 | NCI-H2405 | 0.983
77 | NCI-H1437 | 1.3
78 | CAL-12T | 1.04
79 | H3255 | 0.921
80 | NCI-H2347 | 0.704
81 | NCI-H1975 | 1.09
82 | NCI-H441 | 0.839
83 | NCI-H1650 | 0.888
84 | NCI-H1915 | 1.03
85 | NCI-H2087 | 0.718
86 | HCC-366 | 0.865
87 | NCI-H1793 | 0.511
88 | RERF-LC-KJ | 0.901
89 | EKVX | 0.675

Same assay, conditions: first compound 0.2 µM

Row | Cell Line | relative viability
90 | LC-2-ad | 0.643
91 | LXF-289 | 0.738
92 | ChaGo-K-1 | 0.906
93 | NCI-H2170 | 0.967
94 | NCI-H322M | 0.704
95 | HCC-78 | 0.401
96 | BEN | 0.667
97 | HCC-15 | 0.439
98 | HCC-827 | 0.989
99 | NCI-H460 | 0.886
100 | LU99A | 0.83
101 | NCI-H2085 | 0.536
102 | A-427 | 0.954
103 | NCI-H520 | 1.02
104 | NCI-H838 | 0.859
105 | NCI-H596 | 0.696
106 | NCI-H3122 | 0.719
107 | NCI-H1395 | 0.928

Row | Cell Line | relative viability
108 | 201T | 1.05
109 | NCI-H1993 | 0.745
110 | HOP-62 | 0.807
111 | NCI-H1355 | 0.539
112 | NCI-H2405 | 0.909
113 | NCI-H1437 | 1.17
114 | CAL-12T | 1.14
115 | H3255 | 0.457
116 | NCI-H2347 | 0.451
117 | NCI-H1975 | 1.03
118 | NCI-H441 | 0.903
119 | NCI-H1650 | 0.842
120 | NCI-H1915 | 0.812
121 | NCI-H2087 | 0.507
122 | HCC-366 | 0.755
123 | NCI-H1793 | 0.386
124 | RERF-LC-KJ | 0.853
125 | EKVX | 0.517

Same assay, conditions: first compound 0.6325 µM

Row | Cell Line | relative viability
126 | LC-2-ad | 0.533
127 | LXF-289 | 0.737
128 | ChaGo-K-1 | 0.769
129 | NCI-H2170 | 0.952
130 | NCI-H322M | 0.757
131 | HCC-78 | 0.449
132 | BEN | 0.546
133 | HCC-15 | 0.293
134 | HCC-827 | 0.86
135 | NCI-H460 | 0.404
136 | LU99A | 0.699
137 | NCI-H2085 | 0.567
138 | A-427 | 0.756
139 | NCI-H520 | 0.758
140 | NCI-H838 | 0.796
141 | NCI-H596 | 0.653
142 | NCI-H3122 | 0.583
143 | NCI-H1395 | 0.94
144 | 201T | 0.874
145 | NCI-H1993 | 0.671
146 | HOP-62 | 0.504
147 | NCI-H1355 | 0.625
148 | NCI-H2405 | 0.545
149 | NCI-H1437 | 0.708
150 | CAL-12T | 0.839
151 | H3255 | 0.739
152 | NCI-H2347 | 0.421
